Where “and” joins values, the source holds several entries; their conditions need not be identical. Equal values may be shown once. Read-outs that look alike come from different tables or passages of the source.
Key:
A549 cells = details: for p- Smad2/3/GAPDH normalized / b-catenin/ HDAC2 normalized / b-catenin/ Histone 3 normalized / b-catenin/ tubulin normalized / N-Cadherin/GAPDH normalized / Smad2/3/GAPDH normalized: TGF-β=1; for P65/GAPDH normalized / p-P65/GAPDH normalized: TGF-β+TNF-a=1; for E-Cadherin/GAPDH normalized: DMSO=1
mice = details: male mice, 180 mg/kg daily; ref Insilico Medicine, 2021; cited from earlier work
C57BL/6 mice = test: Bleomycin-induced lung fibrosis model; type: in vivo, mouse; details: for HE staining (inflammation area) / IL-1beta in BALF / IL-6 in BALF / monocytes, cell count in BALF / neutrophils, cell count in BALF / Lung function (Penh) / Masson Trichrome's staining / Modified Ashcroft Score / collagen I / α-SMA: individual animals; for Lung function (Penh) / Masson Trichrome's staining / Modified Ashcroft Score / collagen I / α-SMA: Fig 3B-C
Description: Mice received bleomycin on day 1 at a dose of 0.66 mg per kg (equivalent to 1 U per kg), in a volume of 50 μl by intratracheal administration, or received saline (sham group). On day 7, dosing with the corresponding compounds was started. The vehicle group (group 1) was treated with 0.5% methylcellulose BID. […] On days 5 and 21, lung function measurement was performed. On day 28, all animals were killed, and blood and tissue samples were collected along with BALF.
Lung function was measured according to the HDB standard protocol. Expiratory time, relaxation time, peak expiratory flow and peak inspiratory flow were collected and used to calculate Penh data.
Mice were first anesthetized with Zoletil–xylazine (50 mpk and 10 mpk, i.p.). Next, a 1.5–2-cm longitudinal incision was made on the ventral side of the neck to expose the trachea by blunt dissection, and curved forceps were placed underneath the trachea. A 10–12-cm piece of suture was then threaded underneath the trachea using forceps. The ends of the suture were then pulled cranially to ‘stretch’ the trachea toward the surgeon. A 20-G needle was then used to poke a hole in the trachea as close to the larynx as possible. A 22-G blunt stainless steel needle connected to PE tubing was placed in the hole and inserted approximately 5–8 mm into the trachea. The cannula was secured in the trachea by tying the suture around it with an overhand knot. A 1-ml syringe containing 0.4 ml saline was gently pushed forward and backward three times to recover BALF fluid. BALF was transferred into empty tubes and stored on ice. This process was repeated twice with 0.3 ml saline for a total volume of 1 ml.
Total cell numbers were counted with a standard hemocytometer by mixing 20 μl BALF with 20 μl trypan blue. Cytospins were prepared by cytocentrifugation using Cytospins at 106g for 5 min, and then smears of BALF cells were stained with Diff-Quick stain. Cell differentiation was performed by counting at least 400 cells using standard hemocytologic criteria to classify them as alveolar macrophages or monocytes, neutrophils, eosinophils or lymphocytes. The rest of the BALF fluid was centrifuged, and supernatants were collected and stored at −80 °C for cytokine, chemokine and total protein analysis.
From the collected BALF, concentrations of cytokines were measured from mice in groups 2–7 killed on day 28. Mouse BALF cytokines and chemokines were measured using the ELISA Analysis Kit (Sinobest Bio). Mouse BALF soluble collagen was measured using the Soluble Collagen kit (Biocolor). Mouse lung hydroxyproline content was measured using the Hydroxyproline Assay Kit (Njjcbio).
Left lung lobes were removed from each mouse and fixed in 10% NBF solution, embedded in paraffin and processed to obtain 4-μm sections for staining with H&E. H&E-stained slides were scanned using an Aperio ScanScope Model CS2 (Leica) at ×200 magnification. Images were then opened in the HALO Plus 5 workstation (version 2.3, Indica Labs) program. Using the pen annotation tool, the whole-lung section was selected as an annotation layer. The area of vessels was defined as background using the exclusion drawing tool. The total inflammation area was quantified by selecting the dark blue inflammation cells using the pen annotation tool manually. The percentage of H&E staining (inflammation area/total area of the lung) in the selected annotation was then calculated using the program.
Masson’s trichrome staining was conducted using a ready-to-use kit (Trichrome Stain (Masson) Kit, HT15, Sigma-Aldrich) as described by the manufacturer.
Lung sections were cut at a thickness of 4 μm, dried in an oven for 1 h and stained with M&T using our standard protocol.

[1] = 1 μM, TGF-β+TNF-a group, Batch 1
[2] = 1 μM, TGF-β+TNF-a group, Batch 2
[3] = 1 μM, TGF-β+TNF-a group, Batch 3
[4] = 3 μM, TGF-β+TNF-a group, Batch 1
[5] = 3 μM, TGF-β+TNF-a group, Batch 2
[6] = 3 μM, TGF-β+TNF-a group, Batch 3
[7] = G2 INS018_055 3mpk BID, 3 mg/kg
[8] = G3 INS018_055 10mpk BID, 10 mg/kg
[9] = G4 INS018_055 30mpk BID, 30 mg/kg

CC(C)n1cnc(-c2ccc(F)cc2)c1-c1nc(C(=O)Nc2ccc(N3CCN(C)CC3)cc2)c[nH]1 [INS018_055, 2-[4-(4-fluorophenyl)-1-(prop-2-yl)imidazol-5-yl]-N-[4-(4-methylhexahydropyrazin-1-yl)phenyl]-1H-imidazole-4-carboxamide]
p- Smad2/3/GAPDH normalized (A549 cells; 1 μM, Batch 3): 0.1186 | b-catenin/ HDAC2 normalized (A549 cells; 1 μM, Batch 4): 1.855 | b-catenin/ Histone 3 normalized (A549 cells; 1 μM, Batch 4): 0.679 | b-catenin/ tubulin normalized (A549 cells; 1 μM, Batch 4): 1.374 | P65/GAPDH normalized (A549 cells; 1 μM, TGF-β group, Batch 1): 0.3482 | p-P65/GAPDH normalized (A549 cells; 1 μM, TGF-β group, Batch 1): 0.05447 | P65/GAPDH normalized (A549 cells; 1 μM, TGF-β group, Batch 2): 0.9166 | p-P65/GAPDH normalized (A549 cells; 1 μM, TGF-β group, Batch 2): 0.06504 | P65/GAPDH normalized (A549 cells; 1 μM, TGF-β group, Batch 3): 0.4988 | p-P65/GAPDH normalized (A549 cells; 1 μM, TGF-β group, Batch 3): 0.05557 | P65/GAPDH normalized (A549 cells; [1]): 0.397 | p-P65/GAPDH normalized (A549 cells; [1]): 0.497 | P65/GAPDH normalized (A549 cells; [2]): 0.7304 | p-P65/GAPDH normalized (A549 cells; [2]): 0.6585 | P65/GAPDH normalized (A549 cells; [3]): 0.3751 | p-P65/GAPDH normalized (A549 cells; [3]): 0.3266 | E-Cadherin/GAPDH normalized (A549 cells; 3 μM, Batch 1): 1.832 | N-Cadherin/GAPDH normalized (A549 cells; 3 μM, Batch 1): 0.1802 | Smad2/3/GAPDH normalized (A549 cells; 3 μM, Batch 1): 1.447 | p- Smad2/3/GAPDH normalized (A549 cells; 3 μM, Batch 1): 0.01636 | E-Cadherin/GAPDH normalized (A549 cells; 3 μM, Batch 2): 1.252 | N-Cadherin/GAPDH normalized (A549 cells; 3 μM, Batch 2): 0.1613 | Smad2/3/GAPDH normalized (A549 cells; 3 μM, Batch 2): 1.278 | b-catenin/ HDAC2 normalized (A549 cells; 3 μM, Batch 2): 1.403 | b-catenin/ Histone 3 normalized (A549 cells; 3 μM, Batch 2): 0.21 | b-catenin/ tubulin normalized (A549 cells; 3 μM, Batch 2): 0.2321 | p- Smad2/3/GAPDH normalized (A549 cells; 3 μM, Batch 2): 0.09113 | E-Cadherin/GAPDH normalized (A549 cells; 3 μM, Batch 3): 1.09 | N-Cadherin/GAPDH normalized (A549 cells; 3 μM, Batch 3): 0.0841 | Smad2/3/GAPDH normalized (A549 cells; 3 μM, Batch 3): 1.0906 | b-catenin/ HDAC2 normalized (A549 cells; 3 μM, Batch 3): 0.958 | b-catenin/ Histone 3 normalized (A549 cells; 3 μM, Batch 3): 0.258 | b-catenin/ tubulin normalized (A549 cells; 3 μM, Batch 3): 1.067 | p- Smad2/3/GAPDH normalized (A549 cells; 3 μM, Batch 3): 0.09865 | b-catenin/ HDAC2 normalized (A549 cells; 3 μM, Batch 4): 2.079 | b-catenin/ Histone 3 normalized (A549 cells; 3 μM, Batch 4): 0.1136 | b-catenin/ tubulin normalized (A549 cells; 3 μM, Batch 4): 1.238 | P65/GAPDH normalized (A549 cells; 3 μM, TGF-β group, Batch 1): 0.5411 | p-P65/GAPDH normalized (A549 cells; 3 μM, TGF-β group, Batch 1): 0.07665 | P65/GAPDH normalized (A549 cells; 3 μM, TGF-β group, Batch 2): 0.9083 | p-P65/GAPDH normalized (A549 cells; 3 μM, TGF-β group, Batch 2): 0.116 | P65/GAPDH normalized (A549 cells; 3 μM, TGF-β group, Batch 3): 0.5638 | p-P65/GAPDH normalized (A549 cells; 3 μM, TGF-β group, Batch 3): 0.08352 | P65/GAPDH normalized (A549 cells; [4]): 0.3919 | p-P65/GAPDH normalized (A549 cells; [4]): 0.3522 | P65/GAPDH normalized (A549 cells; [5]): 0.5755 | p-P65/GAPDH normalized (A549 cells; [5]): 0.6038 | P65/GAPDH normalized (A549 cells; [6]): 0.3478 | p-P65/GAPDH normalized (A549 cells; [6]): 0.3112 | reduction of erythrocyte count (mice): 19.8% | reduction in fibrotic area vs vehicle (C57BL/6 mice; 3 mg per kg BID): over 50% | reduction in fibrotic area vs vehicle (C57BL/6 mice; 10 mg per kg BID): more than 75% | reduction in fibrotic area vs vehicle (C57BL/6 mice; 30 mg per kg BID): more than 75% | HE staining (inflammation area) (C57BL/6 mice; 3mpk BID): 16.35 and 17.87 and 12.71 and 1.09 and 10.2 and 19.47 and 0.4 and 43.83 and 48.17 and 4.33 | IL-1beta in BALF (C57BL/6 mice; 3mpk BID): 154.02 and 147.65 and 144.47 and 164.21 and 155.93 and 168.67 and 177.59 | IL-6 in BALF (C57BL/6 mice; 3mpk BID): 126.67 and 118.83 and 123.05 and 144.15 and 121.24 and 147.77 and 123.65 and 122.44 and 139.33 | monocytes, cell count in BALF (C57BL/6 mice; 3mpk BID): 48000 and 77000 and 128800 and 211900 and 99500 and 150400 and 143100 and 79600 and 62000 | neutrophils, cell count in BALF (C57BL/6 mice; 3mpk BID): 31200 and 500 and 700 and 0 and 1000 | HE staining (inflammation area) (C57BL/6 mice; 10mpk BID): 21.7 and 0.11 and 5.58 and 22.87 and 0.24 and 8.94 and 0.45 and 42.15 and 0.46 and 0.26 | IL-1beta in BALF (C57BL/6 mice; 10mpk BID): 241.92 and 204.98 and 199.25 and 226 and 212.62 and 229.18 and 207.53 and 202.43 and 189.69 and 227.91 | IL-6 in BALF (C57BL/6 mice; 10mpk BID): 201.44 and 191.8 and 156.22 and 187.57 and 178.53 and 200.84 and 157.42 and 203.86 and 172.5 | monocytes, cell count in BALF (C57BL/6 mice; 10mpk BID): 40000 and 80000 and 116200 and 4200 and 172000 and 84000 and 29600 and 114100 and 79200 and 38100 | neutrophils, cell count in BALF (C57BL/6 mice; 10mpk BID): 500 and 0 and 200 and 700 | HE staining (inflammation area) (C57BL/6 mice; 30mpk BID): 48.7 and 0.62 and 0.2 and 3.2 and 0.42 and 0.24 and 10.41 and 0.95 and 7.2 and 3.59 | IL-1beta in BALF (C57BL/6 mice; 30mpk BID): 205.62 and 188.42 and 203.7 and 211.35 and 200.52 and 228.54 and 189.06 and 180.78 and 190.33 and 224.09 | IL-6 in BALF (C57BL/6 mice; 30mpk BID): 147.17 and 151.39 and 139.93 and 159.83 and 139.33 and 174.91 and 170.69 and 171.9 and 168.28 | monocytes, cell count in BALF (C57BL/6 mice; 30mpk BID): 53400 and 20000 and 196300 and 26700 and 124800 and 27500 and 26500 and 61600 and 54600 | neutrophils, cell count in BALF (C57BL/6 mice; 30mpk BID): 0 and 400 and 1300 and 900 | Lung function (Penh) (C57BL/6 mice; [7]): 0.6758 and 0.6536 and 0.6784 and 0.8035 and 0.7941 and 0.8536 and 2.1862 and 0.7195 and 0.614 and 0.4863 and 3.086 and 0.8355 and 0.9151 | Masson Trichrome's staining (C57BL/6 mice; [7]): 13.42 and 12.85 and 13.06 and 0.67 and 7.67 and 20.55 and 0.21 and 52.81 and 60.17 and 6.1 | Modified Ashcroft Score (C57BL/6 mice; [7]): 4.5 and 1.5 and 6 and 3.25 | collagen I (C57BL/6 mice; [7]): 1.64 and 0.35 and 0.02 and 1.98 and 3.34 and 1.23 and 0.25 and 0.51 and 0.22 and 0.32 | α-SMA (C57BL/6 mice; [7]): 0.37 and 0.33 and 0.09 and 0.57 and 0.58 and 0.29 | Lung function (Penh) (C57BL/6 mice; [8]): 0.921 and 0.5921 and 0.7137 and 3.621 and 0.8031 and 0.5775 and 0.6428 and 0.5842 and 0.678 and 0.5758 and 0.618 and 0.6177 and 0.711 | Masson Trichrome's staining (C57BL/6 mice; [8]): 19.44 and 0.05 and 6.38 and 17.98 and 0.22 and 11.46 and 0.26 and 36.84 and 1 and 0.45 | Modified Ashcroft Score (C57BL/6 mice; [8]): 1.25 and 2.5 and 0.75 and 3 and 4.5 and 0.25 | collagen I (C57BL/6 mice; [8]): 0.04 and 2.29 and 0.08 and 0.17 and 0.07 and 0.11 and 0.36 and 0.22 and 2.99 and 3.49 | α-SMA (C57BL/6 mice; [8]): 0.2 and 0.91 and 0.22 and 0.38 and 0.09 and 0.78 and 0.06 and 0.41 and 2.61 | Lung function (Penh) (C57BL/6 mice; [9]): 0.81 and 0.4773 and 0.7792 and 0.5085 and 0.4976 and 0.9972 and 0.6276 and 0.4738 and 0.7711 and 0.8367 and 0.5642 and 0.8492 and 0.6495 | Masson Trichrome's staining (C57BL/6 mice; [9]): 54.82 and 0.37 and 1.9 and 3.57 and 0.51 and 0.16 and 12.49 and 1.77 and 9.46 and 7.1 | Modified Ashcroft Score (C57BL/6 mice; [9]): 1.5 and 3 and 6 | collagen I (C57BL/6 mice; [9]): 0.43 and 0.13 and 2.32 and 1.69 and 1.28 and 0.07 and 1.12 and 0.03 and 0.15 and 0.02 | α-SMA (C57BL/6 mice; [9]): 0.1 and 0.05 and 0.38 and 0.09 and 0.73 and 0.22 and 0.72 and 0.11 and 0.15 and 0.18
